pIC50: −log10 of the molar value. Where a name gives a salt, the structure may show the parent alone.
Target: T1, human LCE (Homo sapiens, UniProt Q9H5J4)
T1 sequence (Q9H5J4 1-265): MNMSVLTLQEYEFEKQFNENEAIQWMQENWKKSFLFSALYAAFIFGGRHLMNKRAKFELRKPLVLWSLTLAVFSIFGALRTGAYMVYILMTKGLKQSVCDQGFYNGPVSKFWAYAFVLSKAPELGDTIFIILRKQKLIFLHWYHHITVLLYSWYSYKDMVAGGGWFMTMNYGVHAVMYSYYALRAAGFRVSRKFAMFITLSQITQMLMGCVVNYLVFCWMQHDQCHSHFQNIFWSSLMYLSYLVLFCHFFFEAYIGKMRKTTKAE
Assay: LCE enzyme activity-inhibitory test
Type: biochemical
Settings: [14C]-malonyl CoA / palmitoyl CoA substrate, 37° C., 90 minutes
Summary of the method: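 Human LCE (100 μg/mL in enzyme solution) was incubated 90 min at 37 °C in 100 mM potassium phosphate pH 6.5 with palmitoyl CoA, malonyl CoA, [14C]-malonyl CoA, rotenone and fatty acid-free BSA. Acid-stopped, hydrolyzed products were captured on GF/C filters and counted by scintillation. Inhibition was calculated against DMSO control.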

SMILES | pIC50
O=C(Nc1ccc(C(F)(F)F)cc1)c1cccc(S(=O)(=O)N2CCCCC2)c1 [Example 72, 3-(Piperidin-1-ylsulfonyl)-N-[4-(trifluoromethyl)phenyl]benzamide] | 5.92
Cc1ccc(NC(=O)c2cccc(S(=O)(=O)N3CCCCC3)c2)cc1 [Example 84, N-(4-methylphenyl)-3-(piperidin-1-ylsulfonyl)benzamide] | 5.59
O=C(N[C@H]1CCCc2ccccc21)c1cccc(S(=O)(=O)N2CCCCC2)c1 [Example 83, 3-(Piperidin-1-ylsulfonyl)-N-[(1S)-1,2,3,4-tetrahydronaphthalen-1-yl]benzamide] | 5.30
COC[C@H]1CCCN1S(=O)(=O)c1cccc(C(=O)Nc2ccc(C(C)C)cc2)c1 [Example 40, N-(4-Isopropylphenyl)-3-{[(2R)-2-(methoxymethyl)pyrrolidin-1-yl]sulfonyl}benzamide] | 5.10
COc1cccnc1NC(=O)c1cccc(S(=O)(=O)N2CCCC(c3nc4ccccc4[nH]3)C2)c1 (centres unmarked) [Example 50, 3-{[3-(1H-benzimidazol-2-yl)piperidin-1-yl]sulfonyl}-N-(3-methoxypyridin-2-yl)benzamide] | 7.28
CC(C)Oc1ccc(NC(=O)c2cccc(S(=O)(=O)N3CCCC(c4nc5ccccc5o4)C3)c2)cc1 (centres unmarked) [Example 7, 3-{[3-(1,3-benzoxazol-2-yl)piperidin-1-yl]sulfonyl}-N-(4-isopropoxyphenyl)benzamide] | 7.29
COC1CCCN(S(=O)(=O)c2cccc(C(=O)Nc3ccc(OC(C)C)cc3)c2)C1 (centres unmarked) [Example 18, N-(4-isopropoxyphenyl)-3-[(3-methoxypiperidin-1-yl)sulfonyl]benzamide] | 6.29
CC(C)c1ccc(NC(=O)c2cccc(S(=O)(=O)N3CCCC(O)C3)c2)cc1 (centres unmarked) [Example 32, 3-[(3-Hydroxypiperidin-1-yl)sulfonyl]-N-(4-isopropylphenyl)benzamide] | 7.00
O=C(Nc1cccc2cnccc12)c1cccc(S(=O)(=O)N2CCCCC2)c1 [Example 76, 5-{[3-(piperidin-1-ylsulfonyl)benzoyl]amino}isoquinoline trifluoroacetate] | 5.59
CC(C)c1ccc(NC(=O)c2cccc(S(=O)(=O)N3CCCCC3C)c2)cc1 (centres unmarked) [Example 30, N-(4-isopropylphenyl)-3-[(2-methylpiperidin-1-yl)sulfonyl]benzamide] | 7.00
COc1cccnc1NC(=O)c1cccc(S(=O)(=O)N2C3CCC2CC3)c1 [Example 52, 3-(7-Azabicyclo[2.2.1]hept-7-ylsulfonyl)-N-(3-methoxypyridin-2-yl)benzamide] | 6.03
COc1cccnc1NC(=O)c1cccc(S(=O)(=O)N2CCCC(C(=O)O)C2)c1 (centres unmarked) [Example 56, 1-[(3-{[(3-Methoxypyridin-2-yl)amino]carbonyl}phenyl)sulfonyl]piperidine-3-carboxylic acid] | 5.49
CC(C)c1ccc(NC(=O)c2cccc(S(=O)(=O)N3CCC[C@@H](O)C3)c2)cc1 [Example 36, 3-{[(3R)-3-hydroxypiperidin-1-yl]sulfonyl}-N-(4-isopropylphenyl)benzamide] | 7.09
COc1cccnc1NC(=O)c1cccc(S(=O)(=O)N2CCC[C@@H]2C)c1 [Example 48, N-(3-methoxypyridin-2-yl)-3-{[(2S)-2-methylpyrrolidin-1-yl]sulfonyl}benzamide] | 6.68
CC(C)Oc1ccc(NC(=O)c2cccc(S(=O)(=O)N3CC4CC5CC(C4)CC3C5)c2)cc1 [Example 4, 3-(4-Azatricyclo[4.3.1.1^3,8]undec-4-ylsulfonyl)-N-(4-isopropoxyphenyl)benzamide] | 5.29
CC(C)Oc1cc(NC(=O)c2cccc(S(=O)(=O)N3CCC(F)(F)CC3)c2)[nH]n1 [Example 68, 5-({3-[(4,4-difluoropiperidin-1-yl)sulfonyl]benzoyl}amino)-3-isopropoxy-1H-pyrazole hydrochloride] | 7.89

Next, values leading:

pIC50 | SMILES
5.55 | N#Cc1nc[nH]c1NC(=O)c1cccc(S(=O)(=O)N2CCCCC2)c1 [Example 114, N-(4-cyano-1H-imidazol-5-yl)-3-(piperidin-1-ylsulfonyl)benzamide]
5.43 | COc1ccc(NC(=O)c2cccc(S(=O)(=O)c3ccccc3)c2)cc1 [Example 133, N-(4-methoxyphenyl)-3-(phenylsulfonyl)benzamide]
6.72 | COc1cccnc1NC(=O)c1cccc(S(=O)(=O)C2CCCCC2)c1 [Example 147, 3-(Cyclohexylsulfonyl)-N-(3-methoxypyridin-2-yl)benzamide]
5.89 | CC(O)c1ccc(NC(=O)c2cccc(S(=O)(=O)N3CCCCC3)c2)cc1 (centres unmarked) [Example 93, N-[4-(1-hydroxyethyl)phenyl]-3-(piperidin-1-ylsulfonyl)benzamide]
5.02 | O=C(Nc1cccc(Cl)c1)c1cccc(S(=O)(=O)N2CCCCC2)c1 [Example 90, N-(3-chlorophenyl)-3-(piperidin-1-ylsulfonyl)benzamide]
7.51 | COc1ccc(S(=O)(=O)N2CCCCC2)cc1C(=O)Nc1ccc(C(C)C)cc1 [Example 150, N-(4-isopropylphenyl)-2-methoxy-5-(piperidin-1-ylsulfonyl)benzamide]
6.42 | O=C(Nc1cc(C2CC2)n[nH]1)c1cccc(S(=O)(=O)c2ncccn2)c1 [Example 140, N-(3-cyclopropyl-1H-pyrazol-5-yl)-3-(pyrimidin-2-ylsulfonyl)benzamide]
6.51 | O=C(Nc1cc(C2CC2)n[nH]1)c1cccc(S(=O)(=O)N2CCCC2)c1 [Example 115, N-(3-cyclopropyl-1H-pyrazol-5-yl)-3-(pyrrolidin-1-ylsulfonyl)benzamide]
6.46 | O=C(Nc1ccc(OC(CF)CF)cc1F)c1cccc(S(=O)(=O)c2ccccn2)c1 [Example 124, N-{2-fluoro-4-[2-fluoro-1-(fluoromethyl)ethoxy]phenyl}-3-(pyridin-2-ylsulfonyl)benzamide]
7.41 | CC(C)Oc1ccc(NC(=O)c2cccc(S(=O)(=O)N3CCCCC3)c2)cn1 [Example 100, N-(6-isopropoxypyridin-3-yl)-3-(piperidin-1-ylsulfonyl)benzamide]
6.74 | CC(C)c1ccc(NC(=O)c2cccc(S(=O)(=O)c3ccccn3)c2)cc1 [Example 121, N-(4-isopropylphenyl)-3-(pyridin-2-ylsulfonyl)benzamide]
6.89 | CC(C)Oc1ccc(NC(=O)c2cccc(S(=O)(=O)c3ncccn3)c2)cc1 [Example 139, N-(4-isopropoxyphenyl)-3-(pyrimidin-2-ylsulfonyl)benzamide]
6.64 | CC(C)Oc1ccc(C(=O)NCc2cccc(S(=O)(=O)N3CCCCC3)c2)cc1 [Example 159, 4-Isopropoxy-N-[3-(piperidin-1-ylsulfonyl)benzyl]benzamide]
6.17 | Cc1cccc(S(=O)(=O)c2cccc(C(=O)Nc3ccc(OC(C)C)cc3)c2)n1 [Example 132, N-(4-isopropoxyphenyl)-3-[(6-methylpyridin-2-yl)sulfonyl]benzamide]
6.40 | CCOc1cccnc1NC(=O)c1cccc(S(=O)(=O)N2CCCC2)c1 [Example 113, N-(3-ethoxypyridin-2-yl)-3-(pyrrolidin-1-ylsulfonyl)benzamide]
6.00 | COc1ccc(NC(=O)c2cc(S(=O)(=O)N3CCCCC3)ccc2OC)cc1 [Example 149, 2-Methoxy-N-(4-methoxyphenyl)-5-(piperidin-1-ylsulfonyl)benzamide]
